Patent publication US6172066A, “Dihydropyrimidines and uses thereof” (Synaptic Pharmaceutical Corporation, priority 1997, dated 2001)
Where a name gives a salt, the structure may show the parent alone.

biological target: T1, α1A Human Adrenergic Receptor (Homo sapiens, UniProt P35348); test: Radioligand binding, [3H]prazosin displacement, cloned human α1A receptor (LM(tk-) cell membranes); settings: [3H]prazosin 0.5 nM, 37° C., 20 min
T1 construct: The entire coding region of α1A (1401 bp); expressed in transfected cells
T1 sequence (P35348 1-466): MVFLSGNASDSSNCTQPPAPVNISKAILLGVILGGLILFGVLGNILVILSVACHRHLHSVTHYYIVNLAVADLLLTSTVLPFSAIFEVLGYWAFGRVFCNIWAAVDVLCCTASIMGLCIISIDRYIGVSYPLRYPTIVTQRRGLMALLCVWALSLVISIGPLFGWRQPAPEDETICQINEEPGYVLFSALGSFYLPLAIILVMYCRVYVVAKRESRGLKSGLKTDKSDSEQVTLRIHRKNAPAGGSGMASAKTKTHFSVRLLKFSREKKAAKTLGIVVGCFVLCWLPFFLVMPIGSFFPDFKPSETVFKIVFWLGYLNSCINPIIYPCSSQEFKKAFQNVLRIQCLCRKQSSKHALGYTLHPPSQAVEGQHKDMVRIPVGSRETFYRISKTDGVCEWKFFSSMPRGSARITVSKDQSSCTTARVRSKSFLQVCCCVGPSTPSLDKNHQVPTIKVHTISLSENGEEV
Experimental: The activity of compounds at the different human receptors was determined in vitro using cultured cell lines that selectively express the receptor of interest. These cell lines were prepared by transfecting the cloned cDNA or cloned genomic DNA or constructs containing both genomic DNA and cDNA encoding the human α-adrenergic receptors as follows:
The entire coding region of α1A (1401 bp), including 400 base pairs of 5' untranslated sequence (5' UT) and 200 bp of 3' untranslated sequence (3' UT), was cloned into the KpnI site of the polylinker-modifiedpCEXV-3-derived eukaryotic expression vector, EXJ.RH. The construct involved ligating three partial overlapping fragments: a 5' 0.6kb HincII genomic clone, a central 1.8 EcoRI hippocampal cDNA clone, and a 3' 0.6Kb PstI genomic clone. The hippocampal cDNA fragment overlaps with the 5' and 3' genomic clones so that the HincII and PstI sites at the 5' and 3' ends of the cDNA clone, respectively, were utilized for ligation. This full-length clone was cloned into the KpnI site of the expression vector, using the 5' and 3' KpnI sites of the fragment, derived from vector (i.e., pBluescript) and 3'-untranslated sequences, respectively. Stable cell lines were selected as described above. The stable cell line expressing the human α1A receptor used herein was designated L-α1C (old nomenclature) and was deposited with the American Type Culture Collection, 12301 Parklawn Drive, Rockville, Md. 20852, U.S.A. under the provisions of the Budapest Treaty for the International Recognition of the Deposit of Microorganisms for the Purposes of Patent Procedure. The cell line expressing the human α1A receptor was accorded Accession No. CRL 11140, on Sep. 25, 1992.
Transfected cells from culture flasks were scraped into 5 ml of 5 mM Tris-HCl, 5 mM EDTA, pH 7.5, and lysed by sonication. The cell lysates were centrifuged at 1000 rpm for 5 min at 4° C., and the supernatant was centrifuged at 30,000×g for 20 min at 4° C. The pellet was suspended in 50 mM Tris-HCl, 1 mM MgCl2, and 0.1% ascorbic acid at pH 7.5. Binding of the α1 antagonist [^3 H]prazosin (0.5 nM, specific activity 76.2 Ci/mmol) to membrane preparations of LM(tk-) cells was done in a final volume of 0.25 ml and incubated at 37° C. for 20 min. Nonspecific binding was determined in the presence of 10 μM phentolamine. The reaction was stopped by filtration through GF/B filters using a cell harvester. Inhibition experiments, routinely consisting of 7 concentrations of the tested compounds, were analyzed using a non-linear regression curve-fitting computer program to obtain Ki values.

Q: For “cis-6-(3,4,5-Trifluorophenyl)-1-{N-[2-(4-cyano-4-phenyl-cyclohexylamino)ethyl]}-carboxamido-5-acetyl-4-methoxymethyl-2-oxo-1,2,3,6-tetrahydropyrimidine hydrochloride [Example 2]”, which “hα1A pKi” value is on record?
A: 9.51

same assay, conditions: [3H]prazosin 0.5 nM, 37° C., 20 min, read-out: hα1A pKi (converted)

Q: Which Ki does the source give for COCC1=C(C(=O)OC)C(c2ccc(F)c(F)c2)N(C(=O)NCCN[C@H]2CC[C@H](c3ccccn3)CC2)C(=O)N1 (single isomer, unassigned; (+)) [Example 7, (+)-trans-6-(3,4-Difluorophenyl)-1-{N-[2-(4-(2-pyridyl)-cyclohexylamino)ethyl]}carboxamido-5-methoxycarbonyl-4-methoxymethyl-2-oxo-1,2,3,6-tetrahydropyrimidine hydrochloride] here?
A: 4.47 nM

Q: How did the Ki turn out when CCC1=C(C(N)=O)C(c2ccc(F)cc2F)N(C(=O)NCCN[C@H]2CC[C@](C#N)(c3ccccc3)CC2)C(=O)N1 (single isomer, unassigned; (+)) [Example 3, (+)-cis-5-Carboxamido-6-(2,4-difluorophenyl)-1-{N-[2-(4-cyano-4-phenyl-cyclohexylamino)ethyl]}carboxamido-4-ethyl-2-oxo-1,2,3,6-tetrahydropyrimidine hydrochloride] was run?
A: 0.49 nM

Q: With COC(=O)C1=C(C)NC(=O)N(C(=O)NCCN[C@H]2CC[C@](C#N)(c3ccccc3F)CC2)C1c1ccc(F)c(F)c1 (single isomer, unassigned; (+)) [Example 13, (+)-cis-6-(3,4-Difluorophenyl)-1-{N-[2-(4-cyano-4-(2-fluorophenyl)-cyclohexylamino)ethyl]}carboxamido-5-methoxycarbonyl-4-methyl-2-oxo-1,2,3,6-tetrahydropyrimidine hydrochloride] as the compound, how does the Ki read?
A: 0.102 nM

Q: How did the Ki turn out when COCC1=C(C(=O)OC)C(c2ccc(F)c(F)c2)N(C(=O)NCCN[C@H]2CC[C@](C(=O)OC)(c3ccccc3)CC2)C(=O)N1 (single isomer, unassigned; (+)) [Example 11, (+)-cis-6-(3,4-Difluorophenyl)-1-{N-[2-(4-methoxycarbonyl-4-phenyl-cyclohexylamino)ethyl]}carboxamido-5-methoxycarbonyl-4-methoxymethyl-2-oxo-1,2,3,6-tetrahydropyrimidine hydrochloride] was run?
A: 0.219 nM

Q: With COCC1=C(C(=O)OC)C(c2ccc(F)c(F)c2)N(C(=O)NCCN[C@H]2CC[C@@](C#N)(c3ccccc3)CC2)C(=O)N1 (single isomer, unassigned; (+)) [Example 5, (+)-trans-6-(3,4-Difluorophenyl)-1-{N-[2-(4-cyano-4-phenyl-cyclohexylamino)ethyl]}carboxamido-5-methoxycarbonyl-4-methoxymethyl-2-oxo-1,2,3,6-tetrahydropyrimidine hydrochloride] as the compound, how does the Ki read?
A: 0.126 nM

Q: COCC1=C(C(=O)OC)C(c2ccc(F)c(F)c2)N(C(=O)NCCN[C@H]2CC[C@](C#N)(c3ccccn3)CC2)C(=O)N1 (single isomer, unassigned; (+)) [Example 14, (+)-cis-6-(3,4-Difluorophenyl)-1-{N-[2-(4-cyano-4-(2-pyridyl)-cyclohexylamino)ethyl]}carboxamido-5-methoxycarbonyl-4-methoxymethyl-2-oxo-1,2,3,6-tetrahydropyrimidine hydrochloride] was tested. Which Ki did it give?
A: 0.933 nM

Q: With COCC1=C(C(=O)OC)C(c2ccc(F)c(F)c2)N(C(=O)NCCN[C@H]2CC[C@](C#N)(c3ccccc3)CC2)C(=O)N1 (single isomer, unassigned; (+)) [Example 4, (+)-cis-6-(3,4-Difluorophenyl)-1-{N-[2-(4-cyano-4-phenyl-cyclohexylamino)ethyl]}carboxamido-5-methoxycarbonyl-4-methoxymethyl-2-oxo-1,2,3,6-tetrahydropyrimidine hydrochloride] as the compound, how does the Ki read?
A: 0.135 nM
